# Results taken from patent US20140179681A1, “METHODS AND COMPOSITIONS OF TARGETED DRUG DEVELOPMENT” (priority 2010, published 2014).
# pIC50: −log10 of the molar value. Where a name gives a salt, the structure may show the parent alone. Read-outs that look alike come from different tables or passages of the source.
# Tests used:
# [1] = tested on: epithelial carcinoma A431 cell line; experiment: MTT Cell Proliferation Assay, A431 cells; format: cell-based; settings: for MTT Assay IC50(A431/MDBK): ratio in parentheses: ratio MDBK IC50 / A431 IC50 (selectivity); for IC50: A-431, 72 h, first of x/y(ratio): A431, unit not printed (doses in μM)
# Excerpt: (§1) The following example describes the MTT Cell Proliferation Assay.
# (§2) The MTT Cell Proliferation Assay is a colorimetric assay system that measures the reduction of the tetrazolium salt MTT (3-(4,5-dimethylthiazol-2-yl)-2,5-diphenyltetrazolium bromide) into insoluble formazan crystals, produced by the mitochondria of viable cells. […] The color can then be quantified by spectrophotometric means. Among the applications for the method are drug sensitivity, cytotoxicity, response to growth factors, and cell activation. The reduction of tetrazolium salts is now recognized as a safe, accurate alternative to radiometric testing.
# (§3) Two replicates on each cell plate and 2 duplicate plates gave 4 individual replicates of each concentration, in each cell line. Concentrations were diluted in 100% DMSO from 25 mM stocks.
# (§4) Twelve 96 well plates of each cell line were plated. Plating was done by dislodging cells as in passage protocol, counting on a hemocytometer, re-suspending in standard growth media, and plating using a multichannel pippetor.
# (§5) 16 μl of 25 mM stock+34 μl DMSO=8 mM starting concentrations, and serial diluted as with test compounds in same plate. […] Two replicates of each concentrations was run on each cell plate. All compound addition and cell treatments were done using aseptic technique under a laminar flow aseptic hood.
# (§6) Control: 0.5% DMSO in treatment media was used as the control.
# (§7) MTT dye (Thiazolyl Blue Tetrazolium Bromide, Sigma cat #M5655) stock was prepared in bulk and stored at 4° C. for use: 5 mgs/ml sterile PDS, shielded from light. 4 ul of this stock per 100 uls treatment media per well was used.
# (§8) Plates were incubated overnight prior to treatment, with treatment day=Day 0. Compound treatments were prepared prior to washing cells to minimize time cells were dry at room temperature after final aspiration. Compounds were diluted in 100% DMSO in 96 well polypropylene plates: 40 μl 25 mM stock+10 μl DMSO=20 mM; 20 μl of 20 mM+30 μl DMSO=8 mM; 20 μl of 8 mM+30 μl DMSO=3.2 mM; 20 μl of 3.2 mM+30 μl DMSO=1.3 mM; 20 μl of 1.3 mM+30 μl DMSO=0.51 mM.
# (§9) 5.0 μl/ml were added to treatment media, in sterile, 2.2 ml deep well plates=0.5% dmso final. Ten μl of each dmso concentration was added to 2.0 ml of treatment media and then mixed using a 1200 μl multichannel pipettor. Cell plates were treated from the deep well plates. Treatment media was standard growth media containing 0.5% FBS and standard additions. This reduced FBS concentration allowed for a slower growth rate in cells.
# (§10) Media was aspirated from cell plates, and washed with 200 μl/well sterile PBS. Aspirated PBS wash, and cell plates were treated with 200 μl of compound/treatment media per well, and incubated at 37° C., 5% CO2 for 3 days.
# (§11) Prior to harvesting, visual observations were made under an inverted microscope. Plates were harvested by: aspirating the growth media; adding back MTT dye/100 μl treatment media; and incubating plates at 37° C. for 1 hour. MTT dye was aspirated. 100 μl/well dmso was added, and then shaken on a Bellco plate shaker for 5 minutes, at 4.5 setting.
# (§12) Plates were read in a Tecan Sunrize UV plate reader, at 560 nm. Settings: Read mode, Outside Normal 2 sec; Shake settle time 3 sec. Data is reported as % inhibition, calculated for individual plates using control values from that plate.
# MDBK line = experiment: MTT Cell Proliferation Assay, MDBK cells; format: cell-based, bovine; settings: for IC50: 72 h, Table 10, three day treatment, read-out: MTT assay (second value)
# Excerpt: as §1, §2, §3, §4, §5, §6, §7, §8, §9, §10, §11, §12
# EGFR = target: T1, EGFR (Homo sapiens, UniProt P00533); experiment: EGFR in-cell Western (ICW) screening protocol (EGFR inhibition assay); format: cell-based; parameters: ICW 1 / ICW 2 / ICW Avg: unit not given here; settings: for ICW Avg / ICW 1 / ICW 2: ICW assay; for ICW Avg: average of runs 1 and 2; for ICW 1: run 1; for ICW 2: run 2; for ICW assay: Table 10
# T1 construct: host or cells: A431
# T1 sequence (P00533 25-1210): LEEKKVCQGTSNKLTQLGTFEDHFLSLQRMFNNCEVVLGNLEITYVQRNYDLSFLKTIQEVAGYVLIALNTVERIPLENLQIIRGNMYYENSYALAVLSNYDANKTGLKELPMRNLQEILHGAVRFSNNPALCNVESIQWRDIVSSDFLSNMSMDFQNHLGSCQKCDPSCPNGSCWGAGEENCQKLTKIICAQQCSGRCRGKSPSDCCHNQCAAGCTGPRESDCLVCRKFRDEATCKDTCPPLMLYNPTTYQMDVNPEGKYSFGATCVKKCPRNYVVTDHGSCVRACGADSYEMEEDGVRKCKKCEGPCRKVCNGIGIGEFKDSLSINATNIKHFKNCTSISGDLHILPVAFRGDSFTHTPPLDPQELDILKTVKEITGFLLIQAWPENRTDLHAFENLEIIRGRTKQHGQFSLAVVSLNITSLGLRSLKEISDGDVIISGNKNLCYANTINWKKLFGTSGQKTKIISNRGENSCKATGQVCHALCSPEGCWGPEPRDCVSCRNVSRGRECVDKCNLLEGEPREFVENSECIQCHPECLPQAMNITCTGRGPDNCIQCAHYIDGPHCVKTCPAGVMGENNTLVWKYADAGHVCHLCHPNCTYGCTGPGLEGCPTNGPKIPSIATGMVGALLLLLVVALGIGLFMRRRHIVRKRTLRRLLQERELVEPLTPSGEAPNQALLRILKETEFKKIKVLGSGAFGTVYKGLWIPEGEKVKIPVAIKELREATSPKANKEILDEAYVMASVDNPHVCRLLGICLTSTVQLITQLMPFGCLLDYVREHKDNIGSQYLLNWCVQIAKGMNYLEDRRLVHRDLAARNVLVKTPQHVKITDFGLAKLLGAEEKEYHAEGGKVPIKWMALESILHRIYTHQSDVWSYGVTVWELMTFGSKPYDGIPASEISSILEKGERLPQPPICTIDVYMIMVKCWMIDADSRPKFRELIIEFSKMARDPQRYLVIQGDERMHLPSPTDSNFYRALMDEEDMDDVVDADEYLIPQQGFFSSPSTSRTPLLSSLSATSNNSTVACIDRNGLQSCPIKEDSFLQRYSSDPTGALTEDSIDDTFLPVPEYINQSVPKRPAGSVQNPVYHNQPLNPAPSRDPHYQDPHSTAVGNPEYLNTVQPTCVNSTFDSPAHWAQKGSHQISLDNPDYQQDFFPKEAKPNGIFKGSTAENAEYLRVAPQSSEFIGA
# Summary of the method: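 In-cell Western read-out: fixed A431 cells were co-stained for total EGFR and phospho-EGFR (Tyr1173; some runs Tyr1045). Before fixation, cells were serum-starved for 2 h, exposed to compound for 4 h, then given EGF for 10 min, usually at 10 ng/ml final (6.6 or 12.5 ng/ml in some runs).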
# [2] = A431 cells, first value of cell, read-out: MTT Assay IC50(A431/MDBK): A431
# [3] = MDBK cells, second value of cell, read-out: MTT Assay IC50(A431/MDBK): MDBK
# [4] = Homo sapiens, Table 10, three day treatment, read-out: MTT assay (first value)
# [5] = Bos taurus, MDBK, second of x/y(ratio): MDBK, unit not printed (doses in μM)
# [6] = % Inhibition of EGF dependent EGFR phosphorylation in A431 cells, compound 125 μM in assay
# [7] = Homo sapiens, A-431, A431 cells, first value of cell, read-out: MTT Assay IC50(A431/MDBK): A431
# [8] = Bos taurus, MDBK, MDBK cells, second value of cell, read-out: MTT Assay IC50(A431/MDBK): MDBK
# [9] = first value of 'a/b (c)', taken as A431 cells, read-out: MTT Screen, first value of cell
# [10] = Bos taurus, MDBK, second value of 'a/b (c)', taken as MDBK cells, read-out: MTT Screen, second value of cell
# [11] = Homo sapiens, A-431, first value of 'a/b (c)', taken as A431 cells, read-out: MTT Screen, first value of cell
# [12] = second value of 'a/b (c)', taken as MDBK cells, read-out: MTT Screen, second value of cell
SMILES,ICW Avg (EGFR),ICW 1 (EGFR),ICW 2 (EGFR),"IC50 [1, 4]",ICW assay (EGFR; [6]),"pIC50 [1, 7]",IC50 (MDBK line; [5]),also measured
COc1ccc(C)cc1NC(=S)Nc1ccc(S(=O)(=O)Nc2cc(Cl)cc(Cl)c2)cc1 [AD4-12499],–,–,–,6.99 µM,26.0767,–,6.58 µM,–
COc1ccc(OCC(=O)NC(=S)Nc2ccc(S(=O)(=O)Nc3cc(C)cc(C)c3)cc2)cc1 [AD4-12165],–,–,–,–,–,–,–,"pIC50 [1, 9]: 4.20; pIC50 (MDBK line; [10]): 4.92; ICW Screen (ICW Inhibition) (EGFR): 36.632"
COc1ccc(N2CCN(Cc3cc(=O)oc4c(C)c(O)ccc34)CC2)cc1 [AD4-10217],–,–,–,–,–,–,–,"IC50 ([1]; Homo sapiens, Table 11, read-out: MTT Screen (first value)): 14 µM; MTT Screen (second value) (MDBK line; Table 11, second of x/y(ratio): MDBK, unit not printed (doses in μM)): non-convergent; ICW Screen (EGFR; Table 11, % Inhibition of EGF dependent EGFR phosphorylation in A431 cells, compound 125 μM in assay): −1.007"
O=S(=O)(Nc1ccccc1)c1ccc(NC(=S)Nc2cc(Cl)ccc2Cl)cc1 [AD4-12855],–,–,–,6.83 µM,25.0542,–,6.25 µM,–
Cc1cc(C)nc(NS(=O)(=O)c2ccc(NC(=S)NC(=O)COc3ccc(Br)cc3Cl)cc2)n1 [AD4-12158],–,–,–,–,–,–,–,"pIC50 [1, 11]: 5.30; pIC50 (MDBK line; [10]): 5.34; ICW Screen (ICW Inhibition) (EGFR): 36.727"
COc1cccc2c(C)nc(Nc3nc(C)c(C)c(=O)[nH]3)nc12 [12723 + TFA],66.62,67.34,65.91,–,–,–,–,"pIC50 [1, 2]: 5.03; MTT Assay IC50(A431/MDBK): ratio in parentheses [1]: 1.07; pIC50 (MDBK line; [3]): 5.00"
CC(C)c1ccc(NC(=S)Nc2ccc(S(=O)(=O)Nc3ccccc3)cc2)cc1 [AD4-12820],–,–,–,5.98 µM,47.471,–,5.93 µM,–
CC(C)(C)C(=O)NC(=S)Nc1ccc(S(=O)(=O)NCCc2ccccc2)cc1 [AD4-10313],–,–,–,–,–,–,–,"pIC50 [1, 9]: 4.68; pIC50 (MDBK line; [12]): 4.75; ICW Screen (ICW Inhibition) (EGFR): 30.774"
Cc1ccc2nc(Nc3nc(CCC(C)C)cc(=O)[nH]3)nc(C)c2c1 [11795 + TFA],33.52,35.23,31.81,–,–,4.57,–,MTT Assay IC50(A431/MDBK): ratio in parentheses [1]: 0.48; pIC50 (MDBK line; [8]): 4.89
Cc1ccc2c(C)nc(Nc3nc4c(c(-c5ccccc5)n3)CCCC4)nc2c1 [compound 11777],25.87,37.92,13.81,–,–,5.18,–,MTT Assay IC50(A431/MDBK): ratio in parentheses [1]: 1.62; pIC50 (MDBK line; [8]): 4.97
COc1ccc(OCC(=O)NC(=S)Nc2ccc(S(=O)(=O)Nc3cc(C)cc(C)c3)cc2)cc1 [AD4-11396],–,–,–,–,–,–,–,"pIC50 [1, 9]: 4.60; pIC50 (MDBK line; [12]): 4.67; ICW Screen (ICW Inhibition) (EGFR): 30.745"
CN(Cc1ccccc1)S(=O)(=O)c1ccc(NC(=S)NC(=O)/C=C/c2ccccc2)cc1 [AD4-12126],–,–,–,–,–,–,–,"pIC50 [1, 11]: 4.83; pIC50 (MDBK line; [10]): 4.38; ICW Screen (ICW Inhibition) (EGFR): 37.795"
CCC(C)c1ccc(NC(=S)Nc2ccc(S(=O)(=O)Nc3ccc(OC)cc3)cc2)cc1 (stereo not drawn) [AD4-12468],–,–,–,4.04 µM,77.7928,–,5.41 µM,–
CC1CCc2cc(F)ccc2N1S(=O)(=O)c1ccc(NC(=S)Nc2ccc(Br)cc2Cl)cc1 (stereo not drawn) [AD4-12832],–,–,–,7.71 µM,29.02,–,16.3 µM,–
Cc1ccc2c(=O)nc(Nc3nc(C)cc(-c4ccccc4)n3)[nH]c2c1 [compound 11610],31.67,22.50,40.84,–,–,5.30,–,pIC50 (MDBK line; [8]): 4.76
Cc1cc(C)cc(NS(=O)(=O)c2ccc(NC(=S)NC(=O)CCc3ccccc3)cc2)c1 [AD4-12139],–,–,–,–,–,–,–,"pIC50 [1, 11]: 4.73; pIC50 (MDBK line; [10]): 5.28; ICW Screen (ICW Inhibition) (EGFR): 41.23"
O=C(CCc1ccco1)NC(=S)Nc1ccc(S(=O)(=O)NCCc2ccccc2)cc1 [AD4-10624],–,–,–,–,–,–,–,"pIC50 [1, 11]: 4.59; pIC50 (MDBK line; [10]): 4.78; ICW Screen (ICW Inhibition) (EGFR): 49.448"

# Further lines, with some results ahead:
ICW Avg (EGFR),ICW 1 (EGFR),ICW 2 (EGFR),"IC50 [1, 4]",ICW assay (EGFR; [6]),"pIC50 [1, 7]",SMILES,IC50 (MDBK line; [5]),also measured
25.65,9.17,42.12,–,–,–,CCCCc1c(C)nc(Nc2nc(C)c3ccccc3n2)[nH]c1=O [12743 + TFA],–,"pIC50 [1, 2]: 5.16; MTT Assay IC50(A431/MDBK): ratio in parentheses [1]: 1.43; pIC50 (MDBK line; [3]): 5.01"
–,–,–,4.06 µM,71.3823,–,CCCCc1ccc(NC(=S)Nc2ccc(S(=O)(=O)Nc3ccc(Cl)cc3)cc2)cc1 [AD4-12501],4.06 µM,–
–,–,–,5.94 µM,115.634,–,O=S(=O)(Nc1ccccc1)c1ccc(NC(=S)Nc2ccc(Cl)c(Cl)c2)cc1 [AD4-12833],5.96 µM,–
–,–,–,6.4 µM,26.7815,–,O=S(=O)(Nc1ccc(Cl)c(Cl)c1)c1ccc(NC(=S)Nc2cccc(F)c2)cc1 [AD4-12431],5.57 µM,–
39.53,32.96,46.11,–,–,4.73,Cc1ccc2c(C)nc(Nc3nc(C)c(CCC(C)C)c(=O)[nH]3)nc2c1 [11712 + TFA],–,MTT Assay IC50(A431/MDBK): ratio in parentheses [1]: 0.92; pIC50 (MDBK line; [8]): 4.76
–,–,–,6.78 µM,26.7866,–,CC(=O)c1cccc(NC(=S)Nc2ccc(S(=O)(=O)N3c4ccc(F)cc4CCC3C)cc2)c1 (stereo not drawn) [AD4-12825],5.46 µM,–
28.28,40.81,15.75,–,–,4.59,CCOc1ccc2nc(Nc3nc(C)c(CCC(C)C)c(=O)[nH]3)nc(C)c2c1 [12684 + TFA],–,MTT Assay IC50(A431/MDBK): ratio in parentheses [1]: 0.76; pIC50 (MDBK line; [8]): 4.71
–,–,–,14.8 µM,34.1311,–,COc1ccc(NC(=S)Nc2ccc(S(=O)(=O)Nc3ccc(Cl)cc3)cc2)cc1OC [AD4-12525],12.2 µM,–
35.74,33.84,37.63,–,–,4.79,COc1ccc2nc(Nc3nc(C)c(Cc4cccc(Cl)c4)c(=O)[nH]3)nc(C)c2c1 [11742 + TFA],–,"MTT Assay IC50(A431/MDBK): MDBK (MDBK line; MDBK cells, second value of cell): non-convergent"
41.04,42.02,40.07,–,–,4.95,CCCc1c(-c2ccccc2)nc(Nc2nc(C)c3ccccc3n2)[nH]c1=O [compound 12609],–,MTT Assay IC50(A431/MDBK): ratio in parentheses [1]: 2.10; pIC50 (MDBK line; [8]): 4.63
42.36,46.64,38.07,–,–,4.37,CCOc1ccc2nc(Nc3nc(=O)cc(-c4ccccc4)[nH]3)nc(C)c2c1 [12608 + TFA],–,pIC50 (MDBK line; [8]): 4.77
70.50,73.98,67.01,–,–,4.82,CCOC(=O)c1c(N)nc(Nc2nc(C)c3cc(OC)ccc3n2)nc1-c1ccccc1 [compound 12679],–,MTT Assay IC50(A431/MDBK): ratio in parentheses [1]: 2.78; pIC50 (MDBK line; [8]): 4.38
